{"source": "paper PMC10631289", "about": "(Bioorganic & medicinal chemistry letters, 2023)", "key": {"[1]": {"test_system": "GPR3", "settings": "cited from earlier work"}, "[2]": {"test_system": "HEK parental cell line", "experiment": "cAMP accumulation in HEK parental cell line", "settings": "up to 10 μM"}, "[3]": {"molecular_target": "hGPR3 (Homo sapiens, UniProt P46089)", "sequence (P46089 whole entry)": "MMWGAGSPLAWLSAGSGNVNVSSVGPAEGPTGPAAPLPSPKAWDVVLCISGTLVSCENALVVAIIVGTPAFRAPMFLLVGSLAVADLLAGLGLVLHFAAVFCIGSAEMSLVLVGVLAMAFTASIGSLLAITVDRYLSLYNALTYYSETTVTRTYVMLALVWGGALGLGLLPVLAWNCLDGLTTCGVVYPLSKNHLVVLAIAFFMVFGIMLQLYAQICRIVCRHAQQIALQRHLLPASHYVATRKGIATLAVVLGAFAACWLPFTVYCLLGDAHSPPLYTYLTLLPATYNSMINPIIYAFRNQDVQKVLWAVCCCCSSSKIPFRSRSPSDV", "experiment": "cAMP accumulation through hGPR3 stably expressed in HEK293 cells", "type": "cell-based", "settings": "tested up to 100 μM"}, "[4]": {"test_system": "GPR3", "settings": "β-arrestin PathHunter assay; cited from earlier work"}}, "data": [{"compound": "[Cl-].c1ccc2c(c1)[I+]c1ccccc1-2", "note": "[Compound 1, diphenyleneiodonium (DPI) chloride]", "values": [{"measurement": "reported EC50 for cAMP accumulation", "setting": "[1]; GPR3 activation", "value": "low micromolar range"}, {"measurement": "increase of cAMP", "setting": "[2]", "value": "Neither compound increased cAMP"}, {"measurement": "increase of cAMP", "setting": "[2]; listed as DPI", "value": "but not GPR6, GPR12, or in HEK293 cells alone"}]}, {"compound": "Fc1cccc2c1-c1ccccc1[I+]2", "note": "[Compound 34]", "values": [{"measurement": "GPR3 agonist activity in words", "setting": "[3]", "value": "inactive"}]}, {"compound": "CCCCCCCCCCCCC/C=C/[C@@H](O)[C@@H](N)COP(=O)(O)O", "note": "[Compound S1P, sphingosine 1-phosphate]", "values": [{"measurement": "activation of GPR3 mediated internalization", "setting": "[4]", "value": "does not activate"}, {"measurement": "activation of cAMP accumulation", "setting": "[1]; CHO or HEK cells, ref 4a, 19", "value": "does not activate"}]}, {"compound": "FC1(F)Oc2cc3c(cc2O1)-c1ccccc1[I+]3", "note": "[Compound 38]", "values": [{"measurement": "GPR3 agonist activity in words", "setting": "[3]", "value": "inactive"}]}, {"compound": "c1ccc2c(c1)Cc1ccccc1[I+]2", "note": "[Compound 23, 10H-Dibenz[b,e]iodinium]", "values": [{"measurement": "GPR3 agonist activity in words", "setting": "[3]", "value": "inactive"}]}]}
